{
  "source": "patent US8163791B2",
  "about": "“Imidazole derivatives that induce apoptosis and their therapeutic uses” (Industry-Academic Cooperation Foundation, Yonsei University, priority 2007, dated 2012)",
  "key": {"[1]": {"system": "ΔF508-CFTR in CFPAC-1 cells", "test": "Detection of ΔF508-CFTR expression on the cell membrane (immunostaining without permeabilization)", "type": "cell-based, human", "conditions": "100 nM, 24 h", "protocol": "FIG. 4. Intracellular trafficking of misfolded ΔF508-CFTR by Apoptozole 1. (A) Capan-1 cells expressing normal CFTR display intense fluorescence in a characteristic ring structure that is indicative of cell membrane labeling. (B) CFPAC-1 cells expressing ΔF508-CFTR show little or no fluorescent signal at the cell surface, due to degradation ΔF508-CFTR by interacting with Hsc70 in the proteosome pathway. […] Immunostaining for CFTR is carried out using standard methods without cell permeabilization to allow CFTR detection on the cell surface.\nThe other embodiment of the present invention provides translocation methods of mutant CFTR (cystic fibrosis transmembrane conductance regulator) to treat cystic fibrosis. Hsc70 assists the degradation of misfolded proteins in the ER (Nature 1996, 381, 571-579 Cell 1998, 92, 351-366 Science 1999, 286, 1888-1893). Cystic fibrosis is a disease caused by removal of mutant CFTR in the ER. The most common mutation of CFTR is the deletion of phenylalanine-508 in CFRT (ΔF508-CFRT). […] When Capan-1 cells are immunostained with anti-CFTR antibody, intense fluorescence is observed in the cell membrane. […]\nCapan-1 and CFPAC-1 cells are grown on Permanox slides (Fisher Scientific) for 24 h and treated with 1 mM 4-PBA and 100 nM Az for 24 h. […] The slides were analyzed using a fluorescence microscope (Nikon Eclipse TE2000)."}, "[2]": {"system": "Jurkat human lymphocytes", "test": "Suppression of TNF-α-induced uropod formation in lymphocytes", "type": "cell-based", "conditions": "FIG. 3 legend; TNF-α 10 ng/mL", "protocol": "(§1) FIG. 3. Suppression of TNF-α and PHA-induced human lymphocyte activation by Apoptozole 1. (A) Jurkat human lymphocytes are treated with various concentrations of Apoptozole 1 for 1 h and then are activated by incubation with 10 ng/mL of TNF-α for 1 h to induce uropod formation. The formed uropod is determined by microscopic analysis of groups of cells. (B) Lymphocytes treated with TNF-α (10 ng/mL) for 48 h are incubated with various concentrations of Apoptozole 1 for 24 h. Cell number is measured by CyQuant kit. (C) Jurkat human lymphocytes are incubated with various concentrations of Apoptozole 1 for 1 h and then with 10 μg/mL PHA for 1 h to induce cell aggregation. Cell aggregates are counted in 40× fields of view determined randomly.\n(§2) Lymphocyte activation leads to the formation of a uropod in the rear pole during cell polarization and cell proliferation. Jurkat lymphocytes are incubated with various concentrations of Apoptozoles for 1 h and the treated cells are then activated by treatment with TNF-α for 1 h. Apoptozoles reduce the uropod formation induced by TNF-α by 45% in comparison with cells treated only with TNF-α. […]\nJurkat human lymphocytes are seeded in 6-well plates at a density of 10^3 cells/mL in 5% FBS in order to reduce the propensity for spontaneous uropod formation. […] The formed uropod is determined by microscopic analysis of groups of cells."}, "[3]": {"system": "Jurkat human lymphocytes", "test": "Suppression of PHA-induced homotypic aggregation in lymphocytes", "type": "cell-based", "conditions": "FIG. 3 legend; PHA 10 μg/mL", "protocol": "as §1, §2\nFor homotypic aggregation studies, lymphocytes are seeded in 6-well plates at a density of 2×10^4 cells/mL and treated with various concentrations (0-100 nM) of Az for 1 h. […] Cell aggregates are counted in 40× fields of view determined randomly."}},
  "data": [
    {"smiles": "COc1ccc(-c2nc(-c3cc(C(F)(F)F)cc(C(F)(F)F)c3)n(Cc3ccc(C(N)=O)cc3)c2-c2ccc(OC)cc2)cc1", "note": "[Apoptozole 1, 4-2-[3,5-bis(trifluoromethyl)phenyl]-4,5-bis(4-methoxphenyl)imidazol-1-yl-methyl-benzamide]", "values": [
      {"measurement": "expression of ΔF508-CFTR on the cell membrane", "setting": "[1]", "value": "inhibits Hsc70-mediated degradation of the ΔF508-CFTR"},
      {"measurement": "TNF-α-induced human lymphocyte activation", "setting": "[2]", "value": "Suppression"},
      {"measurement": "PHA-induced human lymphocyte activation", "setting": "[3]", "value": "Suppression"}
    ]}
  ]
}
